Measured values reported in article PMC6367362, “MD001, a Novel Peroxisome Proliferator-activated Receptor α/γ Agonist, Improves Glucose and Lipid Metabolism” (Scientific Reports, 2019).

Molecular target: T1, human HA-PPARα (Homo sapiens, UniProt Q07869)
T1 construct: expressed in transfected cells; host or cells: HEK293
T1 sequence (Q07869 1-468): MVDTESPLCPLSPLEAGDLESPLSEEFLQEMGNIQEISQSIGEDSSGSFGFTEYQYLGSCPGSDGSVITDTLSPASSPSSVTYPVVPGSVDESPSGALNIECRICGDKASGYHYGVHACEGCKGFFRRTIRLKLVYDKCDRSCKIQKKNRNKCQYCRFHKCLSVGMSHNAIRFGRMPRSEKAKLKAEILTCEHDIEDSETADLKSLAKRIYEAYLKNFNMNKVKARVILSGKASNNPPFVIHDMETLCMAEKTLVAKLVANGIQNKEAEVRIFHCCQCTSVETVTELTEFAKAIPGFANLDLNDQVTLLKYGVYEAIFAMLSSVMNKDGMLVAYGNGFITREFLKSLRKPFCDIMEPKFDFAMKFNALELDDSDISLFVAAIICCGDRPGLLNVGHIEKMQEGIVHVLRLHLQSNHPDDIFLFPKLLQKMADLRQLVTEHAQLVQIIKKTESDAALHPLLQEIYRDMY
Assay: PPRE luciferase activity assay in HEK293 cells transfected with HA-PPARα
Assay type: cell-based
Design: transcriptional activity of PPARα: dose or concentration left out as unconfirmed
Conditions: HEK293, PPRE-pk-Luc
Experimental: Figure 2 MD001 induces the expression of target genes through PPARα and PPARγ activation. HEK293 cells were transiently co-transfected with human HA-PPARα (A) and HA-PPARγ (B) expression vectors along with the reporter plasmid (PPRE-pk-Luc) or control reporter plasmid (pk-Luc) with Renilla vector for 24 h. Cells were treated with MD001 (10 μM), rosiglitazone (rosi) (10 μM) or WY14643 (WY) (10 μM) for 24 h. Luciferase activity was normalised to Renilla luciferase activity as described in the Methods section. **, vs. vehicle. (C) HepG2 cells were treated with MD001 (10 μM) for 24 h, and total RNA was isolated and synthesised into cDNA. Relative expression was quantitated using qRT-PCR. **, vs. vehicle. (D,E) HepG2 cells were transfected with control siRNA, PPARα siRNA (D), or PPARγ siRNA (E) for 48 h and treated with vehicle, WY14643 (10 μM), rosiglitazone (10 μM) or MD001 (10 μM) for 24 h. Subsequently, cells were harvested for total RNA isolation. Relative expression of target genes was quantitated using qRT-PCR. ^#, vs. control siRNA; ^‡, vs. control siRNA/vehicle; ^§, vs. control siRNA/WY; * and **, vs. control siRNA/MD001. Data represent the mean ± SD of three independent experiments. *P < 0.05, **P < 0.01, ^#P < 0.01, ^‡P < 0.01, and ^§P < 0.01.
For transient transfection, cells were transfected with plasmid DNA constructs by polyethylenimine (PEI, Polysciences, Inc., Warrington, PA, USA) according to the manufacturer’s instructions. Transcription activity assays of PPARα and PPARγ in HEK293 cells were performed by co-transfection of HA-PPARα, HA-PPARγ, and peroxisome proliferator-response element (PPRE) reporter plasmid (PPRE-pk-Luc) or control reporter plasmid (pk-Luc) with Renilla vector for 24 h. […] Luciferase activity was measured with the Dual-Luciferase Reporter Assay System (Promega, Madison, WI, USA) and quantified using GloMax (Promega, USA) according to the manufacturer’s protocol. […]
Luciferase activity was measured as described in the Methods section. […]

For `Cc1c(O)cc(O)c2c(-c3ccccc3)c(C(=O)/C=C/c3ccccc3)c(=O)oc12` [MD001], the “transcription via PPARα activation (luciferase activity)” value (10 μM, 24 h, vs. vehicle) was “significantly increased” and the “transcriptional activity of PPARα” value (24 h (Supplementary Fig. S2)) was “promoted simultaneous transcriptional activity”.
